Series [1] addresses hCA IV (Homo sapiens, UniProt P22748). Nature of the series: stopped-flow CA catalysed CO2 hydration assay, hCA IV.
Procedure: (§1) An applied photophysics stopped-flow instrument has been used for assaying the CA catalysed CO2 hydration activity[21]. […] The CO2 concentrations ranged from 1.7 to 17 mM for the determination of the kinetic parameters and inhibition constants. […] The uncatalysed rates were determined in the same manner and subtracted from the total observed rates. Stock solutions of inhibitor (0.1 mM) were prepared in distilled-deionized water and dilutions up to 0.005 nM were done thereafter with the assay buffer. Inhibitor and enzyme solutions were preincubated together for 15 min at room temperature prior to assay, in order to allow for the formation of the E–I complex. The inhibition constants were obtained by non-linear least-squares methods using PRISM 3 and the Cheng–Prusoff equation, as reported earlier, and represent the mean from at least three different determinations. All CA isoforms were recombinant ones obtained in-house[22–25].
Series [2] has as its target hCA II (Homo sapiens, UniProt P00918). The series can be described thus: stopped-flow CA catalysed CO2 hydration assay, hCA II.
Procedure: as §1
For series [3], the target named is hCA VII (Homo sapiens, UniProt P43166). Nature of the series: stopped-flow CA catalysed CO2 hydration assay, hCA VII.
Procedure: as §1
Series [4] has as its target hCA I (Homo sapiens, UniProt P00915). Nature of the series: stopped-flow CA catalysed CO2 hydration assay, hCA I.
Procedure: as §1
Where [5] appears, read: within the panel hCA I, II, IV, VII.

Where two headings read alike, the source gives them in different places. Some results are limits rather than exact numbers.

By Ki is commonly meant a dissociation constant, usually derived from enzyme kinetics or from competition with a known ligand. For orientation: melting point means the temperature, or range, at which the solid turns liquid.

Chain of hCA IV (P22748 19-312): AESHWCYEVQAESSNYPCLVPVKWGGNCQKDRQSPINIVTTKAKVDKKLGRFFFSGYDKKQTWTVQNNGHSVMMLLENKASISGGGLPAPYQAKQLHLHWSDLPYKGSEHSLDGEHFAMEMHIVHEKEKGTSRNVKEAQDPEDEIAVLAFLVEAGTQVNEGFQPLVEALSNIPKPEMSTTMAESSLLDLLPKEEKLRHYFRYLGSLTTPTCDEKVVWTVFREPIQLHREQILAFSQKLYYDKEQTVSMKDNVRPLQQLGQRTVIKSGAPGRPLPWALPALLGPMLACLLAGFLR
Chain of hCA I (P00915 whole entry): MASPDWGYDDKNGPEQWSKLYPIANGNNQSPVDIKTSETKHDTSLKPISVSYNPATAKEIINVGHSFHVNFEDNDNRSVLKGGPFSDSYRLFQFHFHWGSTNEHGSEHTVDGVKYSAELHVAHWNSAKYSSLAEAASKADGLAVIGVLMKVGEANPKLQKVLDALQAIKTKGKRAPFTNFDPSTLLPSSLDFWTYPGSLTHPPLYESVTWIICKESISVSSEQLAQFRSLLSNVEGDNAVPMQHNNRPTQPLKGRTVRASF
Chain of hCA VII (P43166 whole entry): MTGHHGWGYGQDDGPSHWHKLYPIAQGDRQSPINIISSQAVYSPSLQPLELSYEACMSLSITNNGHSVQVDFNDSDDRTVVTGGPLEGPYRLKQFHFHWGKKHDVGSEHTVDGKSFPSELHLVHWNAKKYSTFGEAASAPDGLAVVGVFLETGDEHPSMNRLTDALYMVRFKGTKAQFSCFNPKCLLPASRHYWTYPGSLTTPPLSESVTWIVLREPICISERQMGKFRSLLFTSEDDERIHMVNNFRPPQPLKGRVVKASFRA

On to `Cc1cc(-n2cccn2)ccc1S(N)(=O)=O` [Compound 7d, 2-Methyl-4-(^1H-pyrazol-1-yl)benzenesulfonamide], for which the melting point was in the range of 161 to 163 °C. The same compound came in with a Ki in series [1] of 3.42 µM. Moreover, the Ki in series [2] was 0.008 µM. In series [3], this compound gave a Ki of 0.014 µM. In addition, the affinity in series [4] corresponds to a Ki of 0.096 µM.

In turn, `Cc1ccc(-n2cccn2)cc1S(N)(=O)=O` [Compound 7b, 2-Methyl-5-(^1H-pyrazol-1-yl)benzenesulfonamide] gave a melting point of 147 to 149 °C. Besides, in series [1], affinity was put at a Ki of 0.56 µM and the “hCA IV inhibition, in words” value was “potent inhibition of hCA IV”. Moreover, the “isoform selectivity for hCA IV, in words” value in series [1] (setting [5]) is reported as “high selectivity”. In series [2], the inhibition constant Ki was > 10 µM. Besides, the inhibition constant (Ki) in series [3] was > 10 µM. The Ki in series [4] is > 10 µM.

Compound `COc1ccc(S(N)(=O)=O)cc1-n1nc(C)cc1C` [Compound 7k, 3-(3,5-Dimethyl-^1H-pyrazol-1-yl)-4-methoxybenzenesulfonamide] showed a melting point of 167 to 170 °C. Besides, in series [1], the Ki is > 10 µM and the “hCA IV inhibition, in words” value is “inactive throughout the panel”. In addition, in series [2], the Ki was > 10 µM and the “hCA II inhibition, in words” value is “inactive throughout the panel”. Besides, in series [3], the inhibitory constant (Ki) was > 10 µM and the “hCA VII inhibition, in words” value is “inactive throughout the panel”. In addition, in series [4], the Ki was > 10 µM and the “hCA I inhibition, in words” value was “inactive throughout the panel”.

With `Cc1nn(-c2cc(S(N)(=O)=O)ccc2Cl)c(C)c1S(N)(=O)=O` [Compound 9q, 1-(2-Chloro-5-sulfamoylphenyl)-3,5-dimethyl-^1H-pyrazole-4-sulfonamide], the melting point lay within 230 to 232 °C. Further, the inhibition constant (Ki) in series [1] stood at 4.38 µM. Also, in series [2], the Ki amounted to 0.025 µM. Besides, the “isoform selectivity for hCA II, in words” value in series [2] (setting [5]) is “selective hCA II inhibitor”. Moreover, the Ki in series [3] was > 10 µM. Further, in series [4], the Ki was 2.12 µM.

In the case of `Cc1cc(C)n(-c2ccc(S(N)(=O)=O)c(C)c2)n1` [Compound 7c, 4-(3,5-Dimethyl-^1H-pyrazol-1-yl)-2-methylbenzenesulfonamide], the melting point was 194 to 196 °C. Further, the inhibition constant (Ki) in series [1] was 0.033 µM. Also, the affinity in series [2], expressed as Ki, was 0.004 µM. Also, in series [3], affinity was put at a Ki of 0.04 µM. For the same compound, affinity in series [4] was put at a Ki of 0.26 µM.

For `Cc1nn(-c2ccc(Cl)cc2)c(C)c1S(N)(=O)=O` [Compound 8a, 1-(4-Chlorophenyl)-3,5-dimethyl-^1H-pyrazole-4-sulfonamide], the melting point was in the range of 164 to 166 °C. Further, the inhibition constant Ki in series [1] was > 10 µM. The same compound displayed a Ki in series [2] of 5.33 µM. In series [3], the Ki was > 10 µM. The affinity in series [4], expressed as Ki, was 0.76 µM.

As to `COc1ccc(-n2nc(C)c(S(N)(=O)=O)c2C)cc1S(N)(=O)=O` [Compound 9j, 1-(4-Methoxy-3-sulfamoylphenyl)-3,5-dimethyl-^1H-pyrazole-4-sulfonamide], the melting point lay in the range of 254 to 257 °C. In series [1], the Ki was > 10 µM. This compound also showed an inhibition constant Ki in series [2] of 0.96 µM. This compound returned a Ki in series [3] of 0.33 µM. The affinity in series [4] corresponds to a Ki of 0.95 µM.

The compound `COc1ccc(S(N)(=O)=O)cc1-n1nc(C)c(S(N)(=O)=O)c1C` [Compound 9l, 1-(2-Methoxy-5-sulfamoylphenyl)-3,5-dimethyl-^1H-pyrazole-4-sulfonamide] gave a melting point of 238 to 242 °C. Also, the affinity in series [1] corresponds to a Ki of 0.95 µM. This compound registered a Ki in series [2] of 0.3 µM. Also, the Ki in series [3] is > 10 µM. This compound came in with a Ki in series [4] of 6.8 µM.

Turning to `NS(=O)(=O)c1cnn(-c2ccc(S(N)(=O)=O)c(Cl)c2)c1` [Compound 9p, 1-(3-Chloro-4-sulfamoylphenyl)-^1H-pyrazole-4-sulfonamide], the melting point is 195 to 197 °C. This compound registered a Ki in series [1] of 0.075 µM. In addition, in series [2], the affinity corresponds to a Ki of 0.008 µM. This compound registered an inhibitory constant (Ki) in series [3] of 0.48 µM. Further, in series [4], the inhibition constant Ki was 3.08 µM.

As to `Cc1nn(-c2ccc(S(N)(=O)=O)cc2)c(C)c1S(N)(=O)=O` [Compound 9b, 3,5-Dimethyl-1-(4-sulfamoylphenyl)-^1H-pyrazole-4-sulfonamide], the melting point lay in the range of 272 to 274 °C. The compound also displayed a Ki in series [1] of 0.111 µM. The compound further yielded a Ki in series [2] of 0.005 µM. For the same compound, in series [3], the inhibitory constant (Ki) stood at 0.035 µM. The same compound had an inhibition constant Ki in series [4] of 0.33 µM.

Consider `Cc1cc(C)n(-c2cc(S(N)(=O)=O)ccc2C)n1` [Compound 7e, 3-(3,5-Dimethyl-^1H-pyrazol-1-yl)-4-methylbenzenesulfonamide], for which the melting point was 112 to 114 °C. Besides, the Ki in series [1] was > 10 µM. Further, the Ki in series [2] stood at 0.381 µM. Besides, the inhibitory constant (Ki) in series [3] amounted to 0.194 µM. The compound also showed a Ki in series [4] of 4.21 µM.

Compound `COc1ccc(-n2nc(C)cc2C)cc1S(N)(=O)=O` [Compound 7g, 5-(3,5-Dimethyl-^1H-pyrazol-1-yl)-2-methoxybenzenesulfonamide] registered a melting point of 195 to 197 °C. Moreover, the inhibition constant (Ki) in series [1] is > 10 µM. The inhibitory constant (Ki) in series [2] is > 10 µM. For the same compound, the inhibitory constant (Ki) in series [3] is > 10 µM. In series [4], the inhibition constant Ki is > 10 µM.

On to `Cc1cc(-n2cc(S(N)(=O)=O)cn2)ccc1S(N)(=O)=O` [Compound 9g, 1-(3-Methyl-4-sulfamoylphenyl)-^1H-pyrazole-4-sulfonamide], for which the melting point lay in the range of 205 to 207 °C. Also, the inhibitory constant (Ki) in series [1] (read-out: hCA Ki (μM) hCA IV, recombinant enzyme, stopped-flow CO2 hydration, 15 min preincubation, pH 8.3) worked out at 5.8 µM. The Ki in series [2] (read-out: hCA Ki (μM) hCA II, recombinant enzyme, stopped-flow CO2 hydration, 15 min preincubation, pH 8.3) stood at 0.049 µM. The inhibitory constant (Ki) in series [3] (read-out: hCA Ki (μM) hCA VII, recombinant enzyme, stopped-flow CO2 hydration, 15 min preincubation, pH 8.3) stood at 0.005 µM. Moreover, the Ki in series [4] (read-out: hCA Ki (μM) hCA I, recombinant enzyme, stopped-flow CO2 hydration, 15 min preincubation, pH 8.3) turned out to be 0.1 µM.

Turning to `Cc1ccc(-n2cc(S(N)(=O)=O)cn2)cc1S(N)(=O)=O` [Compound 9e, 1-(4-Methyl-3-sulfamoylphenyl)-^1H-pyrazole-4-sulfonamide], the melting point fell in the range of 217 to 220 °C. The Ki in series [1] amounted to 0.24 µM. In series [2], this compound showed a Ki of 0.004 µM. For the same compound, in series [3], the affinity, expressed as Ki, was 0.068 µM. This compound displayed an inhibition constant (Ki) in series [4] of 0.3 µM.

In turn, `NS(=O)(=O)c1ccc(Cl)c(-n2cccn2)c1` [Compound 7n, 4-Chloro-3-(^1H-pyrazol-1-yl)benzenesulfonamide] gave a melting point of 204 to 206 °C. Further, in series [1], the Ki amounted to 0.004 µM. Also, affinity in series [2] was put at a Ki of 0.001 µM. This compound returned a Ki in series [3] of 0.009 µM. The Ki in series [4] was found to be 3.83 µM.

`NS(=O)(=O)c1cnn(-c2ccc(Cl)cc2)c1` [Compound 8f, 1-(4-Chlorophenyl)-^1H-pyrazole-4-sulfonamide]: the melting point fell in the range of 147 to 150 °C. The inhibition constant (Ki) in series [1] was determined as 7.06 µM. The compound further came in with an inhibition constant (Ki) in series [2] of 0.082 µM. The inhibition constant (Ki) in series [3] was > 10 µM. In addition, in series [4], the Ki is 0.19 µM.

For `NS(=O)(=O)c1ccc(Cl)c(-n2cc(S(N)(=O)=O)cn2)c1` [Compound 9r, 1-(2-Chloro-5-sulfamoylphenyl)-^1H-pyrazole-4-sulfonamide], the melting point was in the range of 235 to 237 °C. This compound also gave a Ki in series [1] of 0.022 µM. In series [2], this compound displayed a Ki of 0.005 µM. The compound further gave an inhibition constant Ki in series [3] of 0.6 µM. Further, the Ki in series [4] worked out at 0.55 µM.

`NS(=O)(=O)c1ccc(-n2cc(S(N)(=O)=O)cn2)cc1` [Compound 9c, 1-(4-Sulfamoylphenyl)-^1H-pyrazole-4-sulfonamide] showed a melting point of 254 to 257 °C. This compound also had a Ki in series [1] of 0.025 µM. In series [2], this compound had a Ki of 0.002 µM. The Ki in series [3] worked out at 0.041 µM. For the same compound, the affinity in series [4] corresponds to a Ki of 0.2 µM.
